# Results taken from patent US20190015400A1, “Antifungal Compositions” (priority 2017, published 2019).
# Key:
# J774A.1 cells = assay: Mammalian cytotoxicity assay, azoles and compound 2
# Excerpt: (§1) David K. Orren (University of Kentucky, Lexington, Ky.) and Prof. David J. Feola (University of Kentucky, Lexington, Ky.), respectively.
# BEAS-2B cells = assay: as above; type: cell-based, human
# Excerpt: as §1
# HEK-293 cells = assay: as above; type: cell-based, human
# Excerpt: as §1
# [1] = tested on: 13 Candida spp. strains (strains A-M); assay: MIC and checkerboard assay, azoles + antihistamines, panel; type: cell-based
# Protocol: Determination of minimum inhibitory concentration (MIC) values. MIC values were recorded for all antifungals and antihistamines in order to determine the concentration range of compounds to be used in the checkerboard assays.
# The MIC assays were done using the broth microdilution method as described in CLSI document M27-A3 with minor modifications. Yeast cultures were started by picking a colony from a PDA plate stored at 4° C. The colonies were grown in YEPD medium overnight at 35° C. with shaking at 200 rpm. In a 96-well plate compounds were diluted lengthwise along the plate in serial 2-fold dilutions in the RPMI 1640 medium. The yeast cultures were diluted in RPMI 1640 medium to an OD600 within the range of 0.12 and 0.15 (˜1×10^6 cells/mL). The fungal cells were further diluted by taking 25 μL of fungal cells and adding them to 10 mL of RPMI 1640 medium before adding 100 μL to plate (200 μL total volume). The plates were incubated at 35° C. for 48 h. Visual inspection of the wells for no growth was used to determine the MIC. All compounds were tested in duplicate (TABLES 6 and 7).
# Checkerboard assays were done as previously described to determine the fractional inhibitory concentration index (FICI). 2-fold dilutions of the azole drug were made in RPMI 1640 medium lengthwise along the plate. […] The FICI was calculated based on the formula below. […]
# [2] = tested on: C. albicans ATCC 10231 (strain B); assay: Time-kill assay, POS and EBA; type: cell-based, Candida albicans; conditions: drug alone (POS at concentration used in MICcombination; NYT, AMB at 1×MIC), inoculum 10^5
# Protocol: The protocol for time-kill assays followed methods previously described with minor modifications. Yeast cultures were grown overnight in YEPD medium at 35° C. with shaking at 200 rpm. A working stock of fungal cells was made by diluting cultures in 1640 medium to an OD600 of 0.125 (˜1×10^6 CFU/mL). From the working stock, 100 μL of cells was added to 4.9 mL of RPMI 1640 medium in sterile culture tubes, making the starting fungal cell concentration ˜1×10^5 CFU/mL. Drug was then added to the fungal cells. […] Treated fungal cultures were incubated in the culture tubes at 35° C. with 200 rpm shaking for 24 h. Samples were aliquoted from the different treatments at regular time points (0, 3, 6, 9, 12, and 24 h) and plated in duplicate. For each time point, cultures were vortexed, 100 μL of culture was aspirated, and 10-fold serial dilutions were made in sterile ddH2O. From the appropriate dilutions, 100 μL of fungal suspension was spread on PDA plates and incubated at 35° C. for 48 h before colony counts were determined. At 24 h, 50 μL of 1 mM resazurin in phosphate buffered saline (PBS) was added to the treatments and incubated at 35° C. with 200 rpm shaking for 2 h in the dark for visual inspection. […] Experiments were performed in duplicate.
# [3] = tested on: C. albicans ATCC 64124 (strain F); assay: MIC and checkerboard assay, azoles + compounds 1-5; type: cell-based, Candida albicans; conditions: combination compound 2 + POS
# Protocol: These compounds were serially diluted (two-fold dilutions) horizontally on the plate in 100 μL of RPMI medium. A diluted yeast culture (25 μL of a fungal stock with OD600 of 0.125 in 10 mL of RPMI medium, which achieves a final inoculum size of around 1-5×10^3 CFU/mL) was plated across the plate (100 μL per well), making a final volume of 200 μL total per well.
# The appropriate range of concentrations for each compound was determined based on their corresponding MIC values against each fungal strain. The inoculum size for yeast and filamentous fungi were the same as in the MIC experiments described in section 2.2. The 96-well plates were incubated at 35° C. for 48 h for yeasts and 72 h for the Aspergillus strain before visual inspection for growth. […] The combinational effect of the two tested compounds were considered synergistic (abbreviated SYN) if FICI<0.5, additive (abbreviated ADD) if 0.5<FICI<4, and antagonistic if FICI>4 (TABLES 2-4).
# [4] = tested on: C. albicans ATCC 64124 (strain F); assay: Time-kill assay, azoles + compound 2; type: cell-based, Candida albicans; conditions: drug alone at the concentration of the 8×MICcombo sample; 24 h
# Protocol: Each sample was incubated at 35° C. with shaking at 200 rpm. At various time points (0, 3, 6, 9, 12, and 24 h), 100 μL aliquots were taken from each sample and serially diluted (10-fold dilutions) in sterile ddH2O. 100 μL of each dilution was spread onto PDA plates and incubated at 35° C. for 48 h before colony counts were determined (FIGS. 2A-B). At the end of the 24-h experiment, 50 μL of 1 mM sterile resazurin solution was added to each sample for visual comparison of growth. Each experiment was performed in duplicate.
# [5] = POS 16 μg/mL + 32 μg/mL compound 2
smiles,measurement,setting,value
"CC[C@@H]([C@H](C)O)n1ncn(-c2ccc(N3CCN(c4ccc(OC[C@@H]5CO[C@@](Cn6cncn6)(c6ccc(F)cc6F)C5)cc4)CC3)cc2)c1=O [POS, posaconazole]",cell survival,J774A.1 cells; drug alone at 8 μg/mL,80±9%
same,cell survival,J774A.1 cells; drug alone at 16 μg/mL,~46±3%
same,cell survival,BEAS-2B cells; POS 8 μg/mL + 32 μg/mL compound 2,71±11%
same,cell survival,BEAS-2B cells; [5],38±6%
same,cell survival,HEK-293 cells; POS 1 μg/mL + 32 μg/mL compound 2,80±8%
same,cell survival,HEK-293 cells; [5],40±6%
same,cell survival,HEK-293 cells; drug alone at 16 μg/mL,around 45±12%
same,MIC,"[1]; Candida, drug alone against sensitive fungal strains",0.25 to 1 µg/mL
same,MIC in synergistic combinations,"[1]; synergistic POS + EBA combinations, MIC of the labelled drug",0.008 to 0.5 µg/mL
same,CFU/mL at 24 h,[2],10^8 CFU/mL
same,MIC in combination,[3]; MIC of the labelled drug,4 µg/mL
same,fold reduction in MIC (combination vs alone),[3]; reduction for the labelled drug,8 fold
same,increase in CFU/mL,[4],about 1 order of magnitude
